Source: paper PMC12647017, “Discovery and optimization of a synthetic small protein domain targeting antibodies” (Frontiers in Bioengineering and Biotechnology, 2025)

What was measured:
[1] = Solubility / precipitation observed during production, dialysis and purification; format: physicochemical
Procedure: Therefore, after expression the soluble fractions were further centrifuged at 42,000 g for 20 min at 4 °C. As the samples were diluted (∼5 mg/mL in 25 mL lysis buffer), the soluble fractions were lyophilized and resuspended in 4 mL of water. The samples were dialyzed (Membranes Spectra Pre-Treated 1 kDa, Carl Roth) to Binding buffer without imidazole (20 mM Sodium Phosphate, 500 mM Sodium Chloride pH 7.4) for 24 h at 16 °C. The samples were quantified by […] (typically ∼6 mg/mL), this solution was diluted 1:2 in Binding buffer (20 mM Sodium Phosphate, 500 mM Sodium Chloride, 20 mM imidazole pH 7.4) and purified in a gravitational flow with 6 mL of resin (IMAC Sepharose 6 Fast Flow (Ni^2+), Cytiva) packed in a PD-10 column. The column was prepared using the indications of the manufacturer. The binding of the protein to the column was maximized by an incubation for 1 h at room temperature in agitation at 40rpm. The resin was washed 4 x column volumes (CV) with binding buffer. The elution as achieved by incubation for 15min with elution buffers. We used a gradient with 3 x CV elution buffer 1 (binding buffer with 100 mM imidazole) and 3 x CV elution buffer 2 (binding buffer with 200 mM imidazole).
The most enriched elutions in WW domains (60%–70% purity) were combined and dialysed against PBS1x (10 mM Na2HPO4, 1.8 mM KH2PO4, 2.7 mM KCl, 137 mM NaCl pH 7.4) with routine changes of buffer up to 48 h at 16 °C. Following the samples were concentrated with a Amicon-Ultra15 3 kDa MWCO (Millipore) with centrifugation conditions 4,900 g, 30 min, 4 °C. The final samples were quantified by BCA assay.
Size Exclusion Chromatography (SEC). The samples were further purified by SEC to achieve 90% purity in a AKTA system (Cytiva). The column Superdex 75 Increase 10/300 GL (29148721, Cytiva) was washed with water and equilibrated 2CV in PBS1x, as described by the manufacturer. As calibrants we prepare a mixture: 2 mg/mL of Bovine Serum Albumin (66 kDa, BP9702-100, FisherScientific), Ovalbumin (42 kDa, A5503-1G, Sigma), Chicken Lysozyme ([…], 62,971–10G-F, Fluka) and hPin1_WW chemically synthesized (5 kDa, produced in ([Dias et al., 2015])) in PBS 1x, this sample was filtered with 0.2 µm PES (514–0073, VWR) and analysed. The operation conditions: flow 0.5 mL/min, 0.05 CV in PBS1x and injection of 250 µL and run for 2 CV with PBS 1x at 16 °C. The same method was used for the WW domain samples. After purifications samples were quantified for total protein by BCA assay, as described previously and used for characterization.

human IgG = assay: Microscale Thermophoresis (MST) with IgG-FITC; format: binding
Procedure: For MST assays of E6, IgG was conjugated with fluoresceine isothiocyanate (FITC) using standard protocols. The conjugated IgG-FITC was used at a fixed concentration of 50nM and 16 serial dilutions of E6 protein (from 23.5 µM to 0.7 nM) were made in 50 mM MOPS 0.05% (v/v) Tween-20 pH 7.
For MST assays of E6_M2_T2, the target was hIgG-FITC (F9636, Sigma) at a constant concentration of 25 nM. For the E6_M2_T2 ligand, 16 samples were prepared in variable concentrations starting from 695 nM and using a serial dilution of 1:2 up to a minimum concentration of […] using PBS1x-0.05% (v/v) Tween-20 pH7.4.
Samples were transferred to a standard capillary (Monolith NT.115 Capillary, Nanotemper) with the following settings: medium MST-power, excitation power at 20%, with excitation in Nano-Blue, with thermostat at 25 °C. The signal of the samples was read in triplicates using a Monolith NT.115 (Nanotemper) and the signal was processed in the manufacturer software with FitModel: Kd and Hill. The binding parameters (KD and EC50) and were estimated automatically in the MST software.

human polyclonal IgG = assay: Screening ELISA of phage display clones (crude extracts) against human polyclonal IgG; format: binding; parameters: key: High: high binders (Abs>0.4); Moderate: moderate signal; conditions: crude extract of clones from 6th panning round, 1 µg/well human polyclonal IgG, blocked 3% (w/v) BSA in TBS, 50 µL extract 1 h at 37 °C, Anti-HA tag-HRP, ABTS, Abs405nm
Procedure: The biopanning of the previously developed WWp5_4 library ([Dias et al., 2025]) (Figures 1A,B) against human polyclonal IgG was performed for six rounds, after which an enrichment of ligands was observed (Supplementary Table S3). To assess the binding of each clone to the target, 192 clones were selected and expressed at small scale in 96-deep well blocks, following conditions previously optimised. After cell lysis, the supernatant containing the soluble fraction was used for ELISA assays. The results in Figure 1C illustrate the difference in the absorbance profile of the screened ligands. […] From these 26, only 21 presented high quality for reliable sequencing results. The sequence alignment and diversity of the different binders is represented in Table 1 and Figure 2A.
Small Scale Protein Expression and screening ELISA: From the output of the 6th round of panning, 94 isolated colonies were peaked into two sterile 96-well deep well 2mL round-bottom plates and grown with 200 µL of LB with ampicillin, 125 rpm, 37 °C, overnight (master plates). The following day, to one of the master plates was added glycerol to achieve a final concentration of 15% and was stored at -80 °C. Regarding the other master plate, 12 µL of this culture was added to another sterile 96-well deep well 2 mL round-bottom plate with 1.2 mL of LB with ampicillin and was grown at 37 °C, 125 rpm until OD600nm achieved 0.5-0.6. After this, protein expression was induced with 1 mM IPTG and continued incubation with the previous conditions. The following day, the cultures were sonicated for 30 minutes in ice-water bath and centrifuged for 10 minutes at 2500 x g. The supernatant was collected and transferred to a new microplate to be used in the screening for the ELISA (crude extract). For the ELISA, three microplates were tested: A) Sample binding plate; B) Negative control plate; C) Expression plate. On the sample binding plate, 1 µg/well of human polyclonal IgG was immobilized on the plate at 4 °C, overnight. On the following day, the target was removed, and the wells were washed once with TBS, then the plate was blocked with 300 µL 3% (w/v) BSA in TBS for 1 hour at 37 °C. After this, the wells were washed once with TBS, and were then incubated with 50 µL of crude extract (containing WW domain) for 1 hour at 37 °C. The plate was then washed 5 times with TBS-T, and then incubated with 100 µL of the Anti-HA tag-HRP conjugated antibody (diluted 1:1000) for 1 hour at 37 °C. The plate was then washed once with TBS-T and 4 times with TBS, and then incubated with the substrate ABTS for 1 hour at the dark at 37 °C. The results were then analysed in a microplate reader (TECAN) and the Abs405nm was then measured.
For the Negative control plate the protocol was the same as for the Binding microplate, except for the target immobilization. Instead of having IgG, only coating buffer was added. This plate allows to detect clones that unspecific bind to BSA present in the Blocking Buffer. For the Expression plate the protocol started at the step of incubation with the crude extract, and from there the steps were the same as the Binding microplate. This plate allows to detect clone’s basal expression level.

[2] = biological target: human polyclonal IgG (human); assay: ELISA; hIgG immobilised (1 ug/well) in 0.1 M sodium bicarbonate pH 8.6 on Maxisorp plates; blocked with 5% soya milk in PBS; 100 uL soluble fraction (~0.065 mg/mL total protein), 2 h at room temperature; detection with anti-His-HRP and ABTS, Abs 405 nm

Molecule: C S GK LPPGW E E R KTRRFKLG R TYYYNHHILSKTS Q W EH PR G SSS GK LPPGW E E R KTRRFKLG R TYYYNHHILSKTS Q W EH PR G SS [Clone E6_M2_T2]
- aggregation compared with the monomeric version [1]: aggregates less than the monomeric version
- solubility compared with native counterpart E6 ([1]; IMAC purification without chaotropic agents): higher solubility than the native counterpart
- precipitation during size exclusion chromatography ([1]; Superdex 75 Increase 10/300 GL, PBS1x, 16 °C): did not observe any precipitation
- stability compared with E6_M2 ([1]; after dialysis and during size exclusion chromatography): more stable
- precipitation / solubility after dialysis ([1]; dialysis against PBS1x pH 7.4, up to 48 h at 16 °C): always soluble
- EC50 (human IgG; E6_M2_T2, hIgG-FITC 25 nM, ligand from 695 nM 1:2 dilutions, PBS1x-0.05% (v/v) Tween-20 pH 7.4, 25 °C, n = 3): 157 nM
- Kd (human IgG; E6_M2_T2, hIgG-FITC 25 nM, ligand from 695 nM 1:2 dilutions, PBS1x-0.05% (v/v) Tween-20 pH 7.4, 25 °C, n = 3, read-out: dissociation constant, KD): 62 ± 14 nM
- KD relative to KD of E6 native sequence (human IgG; human IgG): half of the dissociation constant estimated for the E6 native sequence

Molecule: SMGLLPGWDEYKT WVVDV GKTYYYNH FKVS KTSTWTDPRMSS [Clone H8, WW domain clone against human IgG, loops WVVDV / FKVS]
- ELISA signal (human polyclonal IgG): Moderate

Molecule: SMGLPPGWDEYKT AFSRA GKTYYYNH YLEE KTSTWTDPRMSS [Clone G5, WW domain clone against human IgG, loops AFSRA / YLEE]
- ELISA signal (human polyclonal IgG): High (high binders (Abs>0.4))

Molecule: SMGLPPGWDEYKT ALSRW GKTYYYNH DWNP KTSTWTDPRMSS [Clone H7, WW domain clone against human IgG, loops ALSRW / DWNP]
- ELISA signal (human polyclonal IgG): Moderate

Molecule: SMGLPPGWDEYKT FEIVM GKTYYYNH MHTD KTSTWTDPRMSS [Clone D10, WW domain clone against human IgG, loops FEIVM / MHTD]
- ELISA signal (human polyclonal IgG): Moderate

Molecule: SMGLPPGWDEYKT SLSRP GKTYYYNH EEPS KTSTWTDPRMSS [Clone G3, WW domain clone against human IgG, loops SLSRP / EEPS]
- ELISA signal (human polyclonal IgG): High (high binders (Abs>0.4))

Molecule: SMGLPPGWDEYKT SMALL GKTYYYNH YTPG KTSTWTDPRMSS [Clone C8, WW domain clone against human IgG, loops SMALL / YTPG]
- ELISA signal (human polyclonal IgG): Moderate

Molecule: SMGLPPGWDEYKT TLAGL GKTYYYNH YTPG KTSTWTDPRMSS [Clone G9, WW domain clone against human IgG, loops TLAGL / YTPG]
- ELISA signal (human polyclonal IgG): Moderate

Molecule: SMGLPPGWDEYKT TMAWL GKTYYYNH YTPG KTSTWTDPRMSS [Clone A5, WW domain clone against human IgG, loops TMAWL / YTPG]
- ELISA signal (human polyclonal IgG): High (high binders (Abs>0.4))

Molecule: SMGLPPGWDEYKT VLYSG GKTYYYNH IMSL KTSTWTDPRMSS [Clone H6, WW domain clone against human IgG, loops VLYSG / IMSL]
- ELISA signal (human polyclonal IgG): High (high binders (Abs>0.4))

Molecule: SMGLPPGWDEYKT YRVMV GKTYYYNH LYRL KTSTWTDPRMSS [Clone H3, WW domain clone against human IgG, loops YRVMV / LYRL]
- ELISA signal (human polyclonal IgG): High (high binders (Abs>0.4))

B1: E6_M2 (designed binder)
chain: CSGKLPPGWEERKTRRFKLGRTYYYNHHILSKTSQWEHPRGSS
- ELISA binding signal relative to the negative control (E. coli Rosetta extract) [2]: 2 fold
- ELISA binding signal relative to the scaffold framework WWp5 4 [2]: 2 fold

B2: E6 in pET21a with C-terminal histidine tag (designed binder)
chain: SMGLPPGWDEYKTRRFKLGKTYYYNHHILSKTSTWTDPRMSS
- ELISA binding signal relative to the negative control (E. coli Rosetta extract) [2]: 1.5 fold
